Values quoted from earlier work in patent US20120309722A1, “THERAPEUTIC REGIMENS FOR THE TREATMENT OF IMMUNOINFLAMMATORY DISORDERS” (priority 2007, published 2012).

What was measured:
[1] = nasal administration; BNF 37 March 1999
[2] = BNF guidelines; for Equivalent Dose to Prednisolone: Equal to 1 mg prednisolone: dose equivalent to 1 mg prednisolone; for Equivalent Dose to Prednisolone: Equal to 5 mg prednisolone: dose equivalent to 5 mg prednisolone

Row | Compound | broadly similar dose from clinical dosing equivalence [1] | Equivalent Dose to Prednisolone: Equal to 1 mg prednisolone [2] | Equivalent Dose to Prednisolone: Equal to 5 mg prednisolone [2]
1 | C[C@]12C=CC(=O)C=C1CC[C@H]1[C@@H]3C[C@@H](O)[C@](O)(C(=O)CO)[C@@]3(C)C[C@H](O)[C@@]12F [triamcinolone] | 110 µg | 0.8 mg | 4 mg
2 | C[C@]12CCC(=O)C=C1CC[C@@H]1[C@@H]2[C@@H](O)C[C@@]2(C)[C@H]1CC[C@]2(O)C(=O)CO [hydrocortisone] |  | 4 mg | 20 mg
3 | CC(=O)OCC(=O)[C@@]1(O)CC[C@H]2[C@@H]3CCC4=CC(=O)CC[C@]4(C)[C@H]3C(=O)C[C@@]21C [cortisone acetate] |  | 5 mg | 25 mg
4 | CC(=O)OCC(=O)[C@@]12N=C(C)O[C@@H]1C[C@H]1[C@@H]3CCC4=CC(=O)C=C[C@]4(C)[C@H]3[C@@H](O)C[C@@]12C [deflazacort] |  | 1.2 mg | 6 mg
5 | methyl prednisone |  | 0.8 mg | 4 mg
